According to the NIST ThermoML archive (doi:10.1021/je600518s):

Details: Liquid, Ebulliometric method (Recirculating still)

COC(C)=O [methyl ethanoate]
Details | vapor or sublimation pressure [kPa]
304 K | 37.14
306 K | 40.4
308 K | 43.89
310 K | 47.62
312 K | 51.6
314 K | 55.85
316 K | 60.38
318 K | 65.21
320 K | 70.34
322 K | 75.79
324 K | 81.58
326 K | 87.72
328 K | 94.23
330 K | 101.12
332 K | 108.41
334 K | 116.11
336 K | 124.25
338 K | 132.83
